Measurements from paper PMC5650142, “GPR40 partial agonists and AgoPAMs: Differentiating effects on glucose and hormonal secretions in the rodent” (PLoS ONE, 2017).
Where “and” joins values, the source holds several entries; their conditions need not be identical. Equal values may be shown once.

Test system: GK rats
Assay: GK rat chronic efficacy (28 days: glucose, food intake, body weight, GLP-1, GIP, PYY, insulin, glucagon)
Assay type: in vivo
Parameters: Food Intake Over Time (Fig 3C) / Total Body Weight Change Over Time / Active GLP-1 Levels Over Time: unit not given here
Settings: for Total Body Weight Change Over Time / Active GLP-1 Levels Over Time / GIP Levels Over Time / PYY Levels Over Time / Plasma Insulin Over Time: GK rats; for GIP Levels Over Time / PYY Levels Over Time: in pg/mL (unit assumed)
Description: At the start of the study, fed (ambient) blood glucose was measured via glucometer at 1 h post lights on, and animals were selected and sorted into treatment groups based on ambient glucose (n = 10/ GK group, n = 6 WKY control). Blood for baseline incretin measurements was collected in the PM via tail vein. Rats were dosed via oral gavage (PO) at a volume of 5 ml/kg daily at approximately 12:30 PM with either vehicle (0.5% methylcellulose), AP1 at 30 mg/kg, or AP3 at 30 mg/kg. MK-8666, a GPR40 partial agonist synthesized at Merck & Co., Inc., Kenilworth, NJ USA [13], at 30 mg/kg was administered in feed (Research Diets, New Brunswick, NJ) and provided ad lib. All compounds were administered to achieve maximal efficacious exposures determined in acute efficacy studies similar to those acute studies described above. In brief, partial agonists and AgoPAMs were titrated in the acute GK rat experiment described above and the exposure associated with maximal efficacy in glucose lowering was noted. Partial agonists and AgoPAMs were then dosed to maintain those exposures up to 24h post dose. […] Rats from this group and the WKY controls were administered vehicle PO when the vehicle, AP1, and AP3 groups were treated. Fed blood glucose, food intake, and body weights were determined on days 10, 17, 23, and 28 of study at 2 h post lights on. Immediately after these measures were taken on days 10, 17, 23, and 28, food was removed. After 5h of fasting, animals were dosed with vehicle or compound and allowed to rest for an additional hour. Glucose, GLP-1, GIP, and PYY were measured after 6h of fasting at 1 hr post dose. Fed blood glucose is described by animals having had ad libidum access to feed up till the time of sampling and occurred at 2h post-lights on where rats were nearing the end of their nocturnal feeding cycle. Fasted blood glucose is described by blood glucose sampled after 6h of fasting where food was removed at 2h post lights on. Please note that the fasted sample was taken 1h post oral dosing. On day 10, blood was collected from the tail vein (20 μl) after morning glucose measures and after 6 hour fast from a subset of n = 3 rats per treatment group to determine the fed and fasted exposure of the compounds in circulation. The blood was stored at 4°C in 0.1 M sodium citrate for subsequent analysis of drug exposure.
Blood for insulin, glucagon, GLP-1, GIP, and PYY measurements was collected into K2EDTA Microtainer tubes (BD, Franklin Lakes, NJ) pre-treated with DPP4 inhibitor (Millipore, Billerica, MA) and cOmplete™ Protease Inhibitor Cocktail Tablets (Roche Diagnostics, Indianapolis, IN). Tubes were centrifuged for 10 minutes at 5000 RPM, and plasma was aliquotted for analysis. Plasma insulin levels were measured via EIA (Mesoscale Discovery ELISA Kit, Gaithersburg MD). Rat plasma total GLP-1 was measured using Total GLP-1 (ver.2) Assay Kit (Cat#: K150JVC). The measurement of active GLP-1 was carried out in a similar manner as that described for total GLP-1 assay with the exception that MSD Active GLP-1 (ver. 2) assay kit (Cat# K150JWC) was used. Rat plasma glucagon was measured using an in-house glucagon assay developed as a MSD format sandwich immunoassay (Merck & Co., Inc., MRL, Kenilworth, NJ USA). The antibody specificity was cross validated via mass- spec using procedures described in Lee et al. Briefly, MSD Streptavidin Gold plates were coated with 2 μg/ml biotin mouse monoclonal antibody generated to glucagon. Test samples were added to the plates and a separate Sulfo- tagged monoclonal antibody was used to detect the captured glucagon protein (2 μg/ml). The ELISA was carried out in the standard reagents in the MSD format. The plate was read on the SECTOR Imager 6000 Reader. Metabolic hormones GIP (Gastric Inhibitory Polypeptide) and PYY (Peptide YY) were measured in rat plasma using the Rat Metabolic Magnetic Bead Panel (EMD Millipore, Billerica, MA). The assay was performed according to manufacturer protocol. […]

For `Cc1cc(OCCCS(C)(=O)=O)cc(C)c1-c1cccc(COc2cc3c(cn2)[C@H]2[C@@H](C3)[C@@H]2C(=O)O)c1` [MK-8666], the “Glucose Over time (S2 File, Fig 2A)” value (30 mpk, Day 0, individual animals) was 167 mg/dL and 165 mg/dL and 192 mg/dL and 168 mg/dL and 160 mg/dL and 197 mg/dL and 172 mg/dL and 183 mg/dL and 169 mg/dL and 161 mg/dL, the “Food Intake Over Time (Fig 3C)” value (30 mpk, Day 10) was 20.6389 and 19.3556 and 19.3778 and 21 and 18.9 and the “Glucose Over time (S2 File, Fig 2A)” value (30 mpk, Day 10, individual animals) was 128 mg/dl and 123 mg/dl and 142 mg/dl and 120 mg/dl and 139 mg/dl (2×) and 127 mg/dl and 130 mg/dl and 140 mg/dl and 115 mg/dl. The “Food Intake Over Time (Fig 3C)” value (30 mpk, Day 17) was 18.0071 and 18.5429 and 17.1786 and 18.0357 and 16.8714, the “Glucose Over time (S2 File, Fig 2A)” value (30 mpk, Day 17, individual animals) was 130 mg/dL and 155 mg/dL and 159 mg/dL and 140 mg/dL and 132 mg/dL and 137 mg/dL and 120 mg/dL and 138 mg/dL and 110 mg/dL and 102 mg/dL and the “Food Intake Over Time (Fig 3C)” value (30 mpk, Day 23) was 18.6833 and 18.8833 and 18.4167 and 19.5083 and 18.1917. The “Glucose Over time (S2 File, Fig 2A)” value (30 mpk, Day 23, individual animals) was 129 mg/dL and 132 mg/dL and 148 mg/dL and 138 mg/dL and 131 mg/dL and 124 mg/dL and 143 mg/dL and 144 mg/dL and 119 mg/dL and 122 mg/dL, the “Food Intake Over Time (Fig 3C)” value (30 mpk, Day 28) was 18.66 and 18.67 and 17.38 and 21.2 and 17.95 and the “Glucose Over time (S2 File, Fig 2A)” value (30 mpk, Day 28, individual animals) was 130 mg/dL and 128 mg/dL and 147 mg/dL and 122 mg/dL and 143 mg/dL and 136 mg/dL and 123 mg/dL and 135 mg/dL and 131 mg/dL and 116 mg/dL. For the same compound, the “Fasted glucose on day 28 (Fig 3B)” value (30 mpk, day 28, fasted, individual animals) was 119 and 118 and 107 and 100 and 94 and 104 and 124 and 102 and 96 and 105, the “Fed glucose on day 28 (Fig 3B)” value (30 mpk, day 28, fed, individual animals) was 123 and 135 and 131 and 116 and 130 and 128 and 147 and 122 and 143 and 136 and the “gut hormones (total and active GLP-1, GIP, PYY)” value (GK rat, 30 mg/kg, 4 weeks of treatment) was “no effect”. For the same compound, the Plasma Glucagon (GK rat, 30 mg/kg, 28 days) was “trend of increasing glucagon on day 28”, the body weight (GK rat, 30 mg/kg, 28 days) was “no effect” and the “fed blood glucose vs vehicle controls” value (GK rat, 30 mg/kg, 28 days, days 10–28) was “significant effect on day 28 only”. For the same compound, the “Total Body Weight Change Over Time” value (30 mpk, Day 0, individual animals (Fig 3D)) was 0, the “Active GLP-1 Levels Over Time” value (30 mpk, Day 0, individual animals (Fig 4B), 30 mg/kg) was 1.901 and 1.26 and 2.116 and 3.51 and 2.184 and 0.8674 and 1.257 and 2.71 and 1.494 and 1.111 and the “GIP Levels Over Time” value (30 mpk, Day 0, individual animals (Fig 4C), 30 mg/kg) was 12.65 and 5.7 and 68.06 and 68.73 and 44.75 and 71.88 and 53.28 and 113.97 and 32.85 and 33.08. The “PYY Levels Over Time” value (30 mpk, Day 0, individual animals (Fig 4D), 30 mg/kg) was 104.9 and 81.92 and 88.3 and 95.99 and 52.32 and 50.41 and 79.99 and 158.3 and 57.72 and 25.52, the “Plasma Insulin Over Time” value (30 mpk, Day 0, individual animals (Fig 5A), 30 mg/kg) was 0.7825 ng/mL and 1.015 ng/mL and 2.348 ng/mL and 1.621 ng/mL and 2.16 ng/mL and 2.5584 ng/mL and 2.141 ng/mL and 1.201 ng/mL and 2.632 ng/mL and 2.493 ng/mL and the “Total Body Weight Change Over Time” value (30 mpk, Day 10, individual animals (Fig 3D), 30 mg/kg) was 20 and 26 and 18 and 13 and 22 and 3 and 11 and 21 and 12 and 4. For the same compound, the “Active GLP-1 Levels Over Time” value (30 mpk, Day 10, individual animals (Fig 4B), 30 mg/kg) was 1.599 and 1.212 and 2.275 and 1.828 and 2.945 and 2.154 and 1.327 and 1.669 and 1.343 and 1.536, the “GIP Levels Over Time” value (30 mpk, Day 10, individual animals (Fig 4C), 30 mg/kg) was 39.32 and 74.04 and 79.4 and 80.59 and 90.86 and 47.57 and 50.25 and 47.43 and 58.38 and 34.5 and the “PYY Levels Over Time” value (30 mpk, Day 10, individual animals (Fig 4D), 30 mg/kg) was 68.18 and 84.22 and 84.94 and 98.89 and 97.3 and 93.71 and 80.17 and 75.96 and 87.42 and 74.37. The “Plasma Insulin Over Time” value (30 mpk, Day 10, individual animals (Fig 5A), 30 mg/kg) was 1.605 ng/mL and 1.432 ng/mL and 1.588 ng/mL and 2.061 ng/mL and 1.507 ng/mL and 2.521 ng/mL and 2.104 ng/mL and 0.5711 ng/mL and 1.866 ng/mL and 2.359 ng/mL, the “Total Body Weight Change Over Time” value (30 mpk, Day 17, individual animals (Fig 3D), 30 mg/kg) was 34 (2×) and 41 and 29 and 32 (2×) and 11 and 22 (2×) and 9 and the “Active GLP-1 Levels Over Time” value (30 mpk, Day 17, individual animals (Fig 4B), 30 mg/kg) was 0.86 and 0.3 and 1.09 and 0.6 and 0.76 and 1.16 and 0.79 and 0.57 (2×) and 1.44. For the same compound, the “GIP Levels Over Time” value (30 mpk, Day 17, individual animals (Fig 4C), 30 mg/kg) was 72.64 and 104.54 and 131.52 and 71.84 and 86.95 and 58.88 and 85.41 and 17.08 and 86.39 and 75.71, the “PYY Levels Over Time” value (30 mpk, Day 17, individual animals (Fig 4D), 30 mg/kg) was 84.67 and 106.51 and 99.04 and 75.86 and 81.98 and 124.9 and 74.42 and 49.36 and 77.72 and 64.96 and the “Plasma Insulin Over Time” value (30 mpk, Day 17, individual animals (Fig 5A), 30 mg/kg) was 2.096 ng/mL and 1.971 ng/mL and 2.299 ng/mL and 1.835 ng/mL and 1.8388 ng/mL and 1.142 ng/mL and 2.593 ng/mL and 0.8411 ng/mL and 2.087 ng/mL and 1.846 ng/mL. The “Total Body Weight Change Over Time” value (30 mpk, Day 23, individual animals (Fig 3D), 30 mg/kg) was 40 and 50 and 44 and 31 (2×) and 12 and 29 and 38 and 27 and 17, the “Total Body Weight Change Over Time” value (30 mpk, Day 28, individual animals (Fig 3D), 30 mg/kg) was 42 (2×) and 59 and 53 and 39 and 16 and 38 and 47 and 36 and 23 and the “Active GLP-1 Levels Over Time” value (30 mpk, Day 28, individual animals (Fig 4B), 30 mg/kg) was 1.155 and 1.013 and 1.22 and 0.9448 and 0.9241 and 0.9389 and 0.7791 and 1.439 and 1.063 and 0.9152. The “GIP Levels Over Time” value (30 mpk, Day 28, individual animals (Fig 4C), 30 mg/kg) was 17.53 and 7.25 and 46.24 and 76.52 and 12.03 and 22.4 and 15.13 and 16.8 and 5.84, the “PYY Levels Over Time” value (30 mpk, Day 28, individual animals (Fig 4D), 30 mg/kg) was 66.63 and 94.86 and 108.27 and 72.37 and 63.96 and 49.91 and 49.72 and 83.74 and 62.98 and 45.13 and the “Plasma Insulin Over Time” value (30 mpk, Day 28, individual animals (Fig 5A), 30 mg/kg) was 1.012 ng/mL and 1.26 ng/mL and 1.45 ng/mL and 2.851 ng/mL and 1.138 ng/mL and 1.638 ng/mL and 1.554 ng/mL and 1.1554 ng/mL and 1.58 ng/mL and 1.305 ng/mL.
